Source: patent US4001218A, “Penicillins” (Bayer Aktiengesellschaft, priority 1972, dated 1977)

Columns and labels:
E. coli A 261 = assay: MIC, test tube series dilution test, E. coli A 261; type: cell-based; details: 24 hours, 37°C
Staph. aureus 133 = type: cell-based, Staphylococcus aureus; details: for MIC: Staph. aureus 133, 24 hours, 37°C
Proteus morg. 932 = assay: MIC, test tube series dilution test, Proteus morg. 932; type: cell-based; details: 24 hours, 37°C
Enterococcus 9790 = assay: MIC, test tube series dilution test, Enterococcus 9790; type: cell-based; details: 24 hours, 37°C
E. coli 14 = type: cell-based; details: for MIC: E. coli 14, 24 hours, 37°C
Proteus vulg. 1017 = type: cell-based, Proteus vulgaris; details: for MIC: Proteus 1017, 24 hours, 37°C
Psdm. aerug. F 41 = assay: MIC, test tube series dilution test, Psdm. aerug. F 41; type: cell-based, Pseudomonas aeruginosa
Klebsiella 63 = assay: MIC, test tube series dilution test, Klebsiella 63; type: cell-based; details: 24 hours' incubation

Structure (SMILES) | MIC (E. coli A 261) [U/ml] | MIC (Staph. aureus 133) [U/ml] | other results
CC1(C)S[C@@H]2[C@H](NC(=O)[C@H](NC(=O)c3ccc(NC(=O)CC4CC5CCC4C5)cc3)c3ccccc3)C(=O)N2[C@H]1C(=O)O (single isomer, unassigned) [Example 15, sodium D(-)-α-[4-(2-norbornylacetamido-benzoylamino)]-benzylpenicillin] | > 256 | < 1 | –
CC1(C)S[C@@H]2[C@H](NC(=O)[C@H](NC(=O)c3ccc(NC(=O)C4CC4)cc3[N+](=O)[O-])c3ccccc3)C(=O)N2[C@H]1C(=O)O [Example 3, sodium D(-)-α-(4-cyclopropanecarbonylamino-2-nitrobenzoylamino)-benzylpenicillin] | > 256 | – | –
CC1(C)S[C@@H]2[C@H](NC(=O)[C@H](NC(=O)c3ccc(NC(=O)C4CC4)c([N+](=O)[O-])c3)c3ccccc3)C(=O)N2[C@H]1C(=O)O [Example 4, sodium D(-)-α-(4-cyclopropanecarbonylamino-3-nitro-benzoylamino)-benzylpenicillin] | > 256 | < 1 | MIC (Proteus morg. 932): > 256 U/ml
CC1(C)S[C@@H]2[C@H](NC(=O)[C@H](NC(=O)c3ccc(NC(=O)C4CCC4)cc3[N+](=O)[O-])c3ccccc3)C(=O)N2[C@H]1C(=O)O [Example 6, sodium D(-)-α-(4-cyclobutanecarbonylamino-2-nitro-benzoylamino)-benzylpenicillin] | > 256 | < 1 | –
CC1(C)S[C@@H]2[C@H](NC(=O)[C@H](NC(=O)c3ccc(NC(=O)CCC4CCCC4)cc3)c3ccccc3)C(=O)N2[C@H]1C(=O)O [Example 9, sodium D(-)-α-(4-[3-cyclopentylpropionylaminobenzoylamino)]-benzylpenicillin] | > 256 | < 1 | –
CC1(C)S[C@@H]2[C@H](NC(=O)[C@H](NC(=O)c3ccc(NC(=O)CCC4CCCCC4)cc3)c3ccccc3)C(=O)N2[C@H]1C(=O)O [Example 10, sodium D(-)-α-[4-(3-cyclohexanepropionylamino-benzoylamino)]-benzylpenicillin] | > 256 | < 1 | MIC (Enterococcus 9790): ~ 16 U/ml; MIC (E. coli 14): < 1 U/ml
CC1(C)S[C@@H]2[C@H](NC(=O)[C@H](NC(=O)c3ccc(NC(=O)C4CCCCCC4)cc3)c3ccccc3)C(=O)N2[C@H]1C(=O)O [Example 13, sodium D(-)-α-(4-cycloheptanecarbonylamino-benzoylamino)-benzylpenicillin] | – | < 1 | MIC (E. coli 14): < 1 U/ml
CC1(C)S[C@@H]2[C@H](NC(=O)[C@H](NC(=O)c3ccc(NC(=O)c4cc([N+](=O)[O-])cc([N+](=O)[O-])c4)cc3)c3ccccc3)C(=O)N2[C@H]1C(=O)O [Example 19] | > 256 | < 1 | MIC (E. coli 14): < 1 U/ml; MIC (Proteus vulg. 1017): ~ 16 U/ml
CC1(C)S[C@@H]2[C@H](NC(=O)[C@H](NC(=O)c3ccc(NC(=O)c4ccc5c(c4)OCO5)cc3)c3ccccc3)C(=O)N2[C@H]1C(=O)O [Example 24] | > 256 | < 1 | –
CC1(C)S[C@@H]2[C@H](NC(=O)[C@H](NC(=O)c3ccc(NC(=O)c4ccc([N+](=O)[O-])cc4)cc3[N+](=O)[O-])c3ccccc3)C(=O)N2[C@H]1C(=O)O [Example 27, sodium D(-)-α-[4-(4-nitrobenzoylamino)-2-nitrobenzoylamino]-benzylpenicillin] | > 256 | < 1 | –
Cc1cc(C(=O)N[C@@H](C(=O)N[C@@H]2C(=O)N3[C@@H]2SC(C)(C)[C@@H]3C(=O)O)c2ccccc2)ccc1[N+](=O)[O-] [Example 31, sodium D(-)-α-(4-nitro-3-methylbenzoylamino)-benzylpenicillin] | > 256 | < 1 | –
Cc1cc(C(=O)N[C@@H](C(=O)N[C@@H]2C(=O)N3[C@@H]2SC(C)(C)[C@@H]3C(=O)O)c2ccccc2)ccc1N [Example 32, sodium D(-)-α-(4-amino-3-methyl-benzoylamino)-benzyl-penicillin] | > 256 | < 1 | –
CC(CC(=O)Nc1ccc(C(=O)N[C@@H](C(=O)N[C@@H]2C(=O)N3[C@@H]2SC(C)(C)[C@@H]3C(=O)O)c2ccccc2)cc1)N=[N+]=[N-] (stereo partly drawn) [Example 40] | > 256 | < 1 | –
CC1(C)S[C@@H]2[C@H](NC(=O)[C@H](NC(=O)c3ccc(NC(=O)c4cccs4)cc3)c3ccccc3)C(=O)N2[C@H]1C(=O)O [Example 48] | – | < 1 | –
CC1(C)S[C@@H]2[C@H](NC(=O)[C@H](NC(=O)c3cccc(NC(=O)C4CC4)c3)c3ccccc3)C(=O)N2[C@H]1C(=O)O [Example 51] | > 256 | < 1 | MIC (E. coli 14): ~ 16 U/ml; MIC (Proteus morg. 932): > 256 U/ml
CC1(C)S[C@@H]2[C@H](NC(=O)[C@H](NC(=O)C=Cc3ccc([N+](=O)[O-])cc3)c3ccccc3)C(=O)N2[C@H]1C(=O)O [Example 54] | > 256 | < 1 | –

Structure (SMILES) | MIC (E. coli A 261) [U/ml] | MIC (Staph. aureus 133) [U/ml] | other results
CC1(C)S[C@@H]2[C@H](NC(=O)[C@H](NC(=O)C=Cc3ccc(NC=O)cc3)c3ccccc3)C(=O)N2[C@H]1C(=O)O [Example 55] | – | < 1 | MIC (Proteus vulg. 1017): > 256 U/ml
CC1(C)S[C@@H]2[C@H](NC(=O)[C@H](NC(=O)C=Cc3ccc(NC(=O)C4CC4)cc3)c3ccccc3)C(=O)N2[C@H]1C(=O)O [Example 56] | > 256 | < 1 | –
CC1(C)S[C@@H]2[C@H](NC(=O)[C@H](NC(=O)C=Cc3ccc(NC(=O)C4CCC4)cc3)c3ccccc3)C(=O)N2[C@H]1C(=O)O [Example 57] | > 256 | < 1 | MIC (E. coli 14): ~ 1 U/ml
COc1cc(C(=O)Nc2ccc(SCC(=O)N[C@@H](C(=O)N[C@@H]3C(=O)N4[C@@H]3SC(C)(C)[C@@H]4C(=O)O)c3ccccc3)cc2)cc(OC)c1OC [Example 58] | – | < 1 | MIC (E. coli 14): ~ 16 U/ml; MIC (Proteus vulg. 1017): > 256 U/ml
CC1(C)S[C@@H]2[C@H](NC(=O)[C@H](NC(=O)CSc3ccc(NC(=O)C4CC4)cc3)c3ccccc3)C(=O)N2[C@H]1C(=O)O [Example 60] | > 256 | – | MIC (Psdm. aerug. F 41; Psdm. aerug. F 41, 24 hours, 37°C): ~ 256 U/ml; MIC (Proteus vulg. 1017): ~ 4 U/ml
CC1(C)S[C@@H]2[C@H](NC(=O)[C@H](NC(=O)CSc3ccc(NC(=O)CC4C=CCC4)cc3)c3ccccc3)C(=O)N2[C@H]1C(=O)O (stereo partly drawn) [Example 62] | > 256 | – | –
CC1(C)S[C@@H]2[C@H](NC(=O)[C@H](NC(=O)CNC(=O)c3ccc(NC=O)cc3)c3ccccc3)C(=O)N2[C@H]1C(=O)O [Example 63] | > 256 | < 1 | MIC (Enterococcus 9790): ~ 4 U/ml; MIC (E. coli 14): ~ 1 U/ml; MIC (Proteus morg. 932): > 256 U/ml
CC1(C)S[C@@H]2[C@H](NC(=O)[C@H](NC(=O)CNC(=O)c3ccc(NC(=O)C4CCC4)cc3)c3ccccc3)C(=O)N2[C@H]1C(=O)O [Example 65] | > 256 | < 1 | MIC (Proteus morg. 932): > 256 U/ml
CC1(C)S[C@@H]2[C@H](NC(=O)[C@H](NC(=O)CNC(=O)c3ccc(NC(=O)C4=CCCCC4)cc3)c3ccccc3)C(=O)N2[C@H]1C(=O)O [Example 67] | – | < 1 | MIC (Proteus vulg. 1017): > 256 U/ml
CC1(C)S[C@@H]2[C@H](NC(=O)[C@H](NC(=O)CNC(=O)c3ccc(N=[N+]=[N-])cc3)c3ccccc3)C(=O)N2[C@H]1C(=O)O [Example 68] | > 256 | < 1 | –
CC1(C)S[C@@H]2[C@H](NC(=O)[C@H](NC(=O)CNC(=O)c3ccc([N+](=O)[O-])cc3)c3ccccc3)C(=O)N2[C@H]1C(=O)O [Example 69] | > 256 | < 1 | –
CC1(C)S[C@@H]2[C@H](NC(=O)[C@H](NC(=O)c3cc(NC=O)cc(NC=O)c3)c3ccccc3)C(=O)N2[C@H]1C(=O)O [Example 71] | > 256 | < 1 | MIC (E. coli 14): ~ 4 U/ml; MIC (Proteus morg. 932): > 256 U/ml
CC1(C)S[C@@H]2[C@H](NC(=O)[C@H](NC(=O)c3cc(NC(=O)C4CC4)cc(NC(=O)C4CC4)c3)c3ccccc3)C(=O)N2[C@H]1C(=O)O [Example 72] | > 256 | < 1 | MIC (Enterococcus 9790): ~ 16 U/ml; MIC (Proteus morg. 932): > 256 U/ml
CC1(C)S[C@@H]2[C@H](NC(=O)[C@H](NC(=O)c3cc(NC(=O)C4CCC4)cc(NC(=O)C4CCC4)c3)c3ccccc3)C(=O)N2[C@H]1C(=O)O [Example 73] | > 256 | < 1 | –
CC1(C)S[C@@H]2[C@H](NC(=O)[C@H](NC(=O)c3ccc(NC(=O)C4CC4)c(NC(=O)C4CC4)c3)c3ccccc3)C(=O)N2[C@H]1C(=O)O [Example 75] | > 256 | < 1 | MIC (Enterococcus 9790): ~ 16 U/ml; MIC (Proteus morg. 932): > 256 U/ml
COc1cc(C(=O)Nc2ccc(C=CC(=O)N[C@@H](C(=O)N[C@@H]3C(=O)N4[C@@H]3SC(C)(C)[C@@H]4C(=O)O)c3ccccc3)cc2)cc(OC)c1OC [Example 79, sodium D(-)-α-[4-(3,4,5-trimethoxybenzoylamino-cinnamoylamino)]-benzylpenicillin] | – | – | Activity against Psdm. aerug. F 41 (minimum inhibitory concentration) (Psdm. aerug. F 41; 24 hours' incubation): 8-16 U/ml; Activity against Staph. aureus 133 (minimum inhibitory concentration) (Staph. aureus 133; 24 hours' incubation): < 1 U/ml; Activity against E. coli 14 (minimum inhibitory concentration) (E. coli 14; 24 hours' incubation): 1-2 U/ml; Activity against Proteus vulg. 1017 (minimum inhibitory concentration) (Proteus vulg. 1017; 24 hours' incubation): 128-256 U/ml; Activity against Klebs. 63 (minimum inhibitory concentration) (Klebsiella 63): 32-64 U/ml
